“And” between values parts separate entries of the source, which are not always exact repeats. Equal entries are not always repeated.
Key:
[1] = tested on: human embryonic stem cell line H9; experiment: Cells from […] differentiated on MEFs: role of Wnt-3a (real-time PCR, FACS); type: cell-based
Experimental: Cells from the human embryonic stem cell line H9 cultured on […]™ for at least five passages were seeded onto MEF feeders in ES media.
At day 3 and 5, the cultures were analyzed by real time PCR for SOX-17, SOX-7, Alpha-fetal protein (AFP), CXCR4, Brychyury (Bry), gooscecoid (GSC), HNF-3 beta, GATA4, hTERT and Oct4. AFP and SOX-7 are regarded as visceral endoderm markers while GATA4, HNF-3beta and SOX-17 represent definite endoderm markers and GSC, Bry, and CXCR4 represent markers of primitive streak. hTERT and Oct-4 are markers for self renewal and pluripotency respectively. FACS analysis was also performed at day 3 and 5.

[2] = tested on: human embryonic stem cell line H9; experiment: Cytokine array (RayBiotech) of cell lysates and conditioned media, Activin A +/- Wnt3a (Table VII); type: cell-based; design: Angiogenin / BDNF / BMP-4 / BMP-6 / CK beta 8-1 / Eotaxin-3 / Flt-3 Ligand / Fractalkine / GCP-2 / GDNF / GM-CSF / I-309 / IFN-gamma / IGFBP-1 / IGFBP-2 / IGFBP-4 / IL-10 / IL-13 / IL-15 / IL-1alpha / IL-1beta / IL-1ra / IL-3 / IL-5 / Leptin / MCP-1 / MIP-1-delta / NT-3 / RANTES / SCF / TGF-beta 1 / TNF-beta / Acrp30 / AgRP / AxI / bFGF: unit not given here; conditions: H9 day 5, samples 1,2
Experimental: At passage 54, cells were differentiated in the presence of 100 ng/mlActivinA+/−10 ng/mlWnt3a for 2 days in 0.5% FBS DMEM/F12. […]
Cell lysates were prepared from cells of each treatment group, with a mammalian cell lysis kit (Sigma-Aldrich,MO). Conditioned media from each treatment group was collected and concentrated. Cytokine array analysis was completed using Cytokine Array panels provided by RayBiotech, GA (http://www.raybiotech.com/). […] For each panel, positive and negative controls are also included.

For “Activin A: activin A (a member of the TGFβ superfamily), R&D Systems; 'w/o wnt' in Table VII = 100 ng/ml Activin A without Wnt3a”, which “CXCR4 positive cells (FACS)” value ([1]; day 3, high concentration of Activin A) is on record?
The value was 32-42%.

And the “cells expressing CXCR4 (FACS)” value ([1]; day 5, high concentration of activin A)?
The value was 28-32%.

And the AFP expression ([1]; lower concentration of Activin A, regardless of Wnt3a)?
Its AFP expression is “very high”.

And the Acrp30 ([2]; Cell conditioned media)?
Its Acrp30 is 1,797.52 and 1,319.88.

And the AgRP ([2]; Cell conditioned media)?
Its AgRP is 378.17 and 195.90.

And the Amphiregulin ([2]; Cell conditioned media)?
The Amphiregulin was 250.52 and 151.01.

What about the Angiogenin ([2]; Cell conditioned media) of the same substance?
The Angiogenin was 13,726.35 and 11,749.55.

What about the Angiopoietin-2 ([2]; Cell conditioned media) of the same substance?
The Angiopoietin-2 was 655.82 and 632.60.

And the AxI ([2]; Cell conditioned media)?
Its AxI is 401.31 and 324.05.

What about the BDNF ([2]; Cell conditioned media) of the same substance?
Its BDNF is 689.22 and 563.39.

And the BMP-4 ([2]; Cell conditioned media)?
Its BMP-4 is 583.40 and 541.83.

What about the BMP-6 ([2]; Cell conditioned media) of the same substance?
The BMP-6 was 354.91 and 355.28.

And the “CK beta 8-1” value ([2]; Cell conditioned media)?
Its value is 17.79 and 25.31.

And the CNTF ([2]; Cell conditioned media)?
The CNTF was 282.81 and 211.86.

What about the EGF ([2]; Cell conditioned media) of the same substance?
The EGF was 1,681.85 and 1,406.12.

And the Eotaxin ([2]; Cell conditioned media)?
Its Eotaxin is 207.89 and 199.67.

What about the Eotaxin-2 ([2]; Cell conditioned media) of the same substance?
The Eotaxin-2 was 890.56 and 744.31.

What about the Eotaxin-3 ([2]; Cell conditioned media) of the same substance?
Its Eotaxin-3 is 975.77 and 665.56.

What about the FGF-7 ([2]; Cell conditioned media) of the same substance?
Its FGF-7 is 449.49 and 352.47.

What about the “Flt-3 Ligand” value ([2]; Cell conditioned media) of the same substance?
The value was 315.58 and 277.47.

What about the Fractalkine ([2]; Cell conditioned media) of the same substance?
The Fractalkine was 120.80 and 145.30.

What about the GCP-2 ([2]; Cell conditioned media) of the same substance?
The GCP-2 was 203.21 and 166.86.

What about the GDNF ([2]; Cell conditioned media) of the same substance?
The GDNF was 176.99 and 194.98.

What about the GM-CSF ([2]; Cell conditioned media) of the same substance?
The GM-CSF was 777.25 and 722.75.

What about the IFN-gamma ([2]; Cell conditioned media) of the same substance?
Its IFN-gamma is 283.74 and 559.64.

And the IGF-I ([2]; Cell conditioned media)?
The IGF-I was 88.96 and 148.11.

What about the IGFBP-1 ([2]; Cell conditioned media) of the same substance?
The IGFBP-1 was 33.71 and 24.37.

And the IGFBP-2 ([2]; Cell conditioned media)?
The IGFBP-2 was 27,656.85 and 28,473.95.

What about the IGFBP-4 ([2]; Cell conditioned media) of the same substance?
The IGFBP-4 was 10,091.09 and 6,029.45.

What about the IL-1alpha ([2]; Cell conditioned media) of the same substance?
The IL-1alpha was 10,155.70 and 5,842.90.

And the IL-1beta ([2]; Cell conditioned media)?
The IL-1beta was 117.99 and 75.93.

And the IL-1ra ([2]; Cell conditioned media)?
The IL-1ra was 142.34 and 93.74.

And the IL-2 ([2]; Cell conditioned media)?
Its IL-2 is 188.22 and 363.72.

And the IL-3 ([2]; Cell conditioned media)?
The IL-3 was 4,598.86 and 5,260.77.

And the IL-4 ([2]; Cell conditioned media)?
The IL-4 was 357.72 and 239.04.

And the IL-6 ([2]; Cell conditioned media)?
Its IL-6 is 7,377.28 and 9,527.88.

And the IL-7 ([2]; Cell conditioned media)?
The IL-7 was 456.98 and 430.27.

And the IL-10 ([2]; Cell conditioned media)?
The IL-10 was 722.93 and 564.32.

What about the IL-16 ([2]; Cell conditioned media) of the same substance?
Its IL-16 is 259.39 and 214.67.

And the LIGHT ([2]; Cell conditioned media)?
The LIGHT was 619.92 and 453.71.

And the Leptin ([2]; Cell conditioned media)?
The Leptin was 2,999.42 and 2,016.38.

What about the M-CSF ([2]; Cell conditioned media) of the same substance?
The M-CSF was 529.09 and 269.04.

What about the MCP-1 ([2]; Cell conditioned media) of the same substance?
Its MCP-1 is 572.17 and 500.58.

And the MCP-4 ([2]; Cell conditioned media)?
Its MCP-4 is 123.61 and 61.87.

And the MIG ([2]; Cell conditioned media)?
The MIG was 272.50 and 486.52.

And the NAP-2 ([2]; Cell conditioned media)?
Its NAP-2 is 97.39 and 110.61.

And the NT-3 ([2]; Cell conditioned media)?
The NT-3 was 97.39 and 171.55.

And the PDGF-BB ([2]; Cell conditioned media)?
Its PDGF-BB is 4,729.96 and 8,521.09.

What about the RANTES ([2]; Cell conditioned media) of the same substance?
The RANTES was 393.31 and 347.78.

What about the SCF ([2]; Cell conditioned media) of the same substance?
The SCF was 691.09 and 487.46.

What about the “TGF-beta 1” value ([2]; Cell conditioned media) of the same substance?
The value was 752.90 and 740.56.

And the “TGF-beta 3” value ([2]; Cell conditioned media)?
Its value is 111.44 and 115.30.

And the TNF-beta ([2]; Cell conditioned media)?
Its TNF-beta is 675.17 and 671.19.

What about the bFGF ([2]; Cell conditioned media) of the same substance?
The bFGF was 7,948.03 and 4,993.83.

What about the Amphiregulin ([2]; Cell lysate) of the same substance?
Its Amphiregulin is 17.50 and 15.44.

What about the AxI ([2]; Cell lysate) of the same substance?
The AxI was 637.50 and 795.83.

And the BDNF ([2]; Cell lysate)?
The BDNF was 167.50 and 167.82.

What about the BMP-4 ([2]; Cell lysate) of the same substance?
The BMP-4 was 247.00 and 273.70.

What about the “CK beta 8-1” value ([2]; Cell lysate) of the same substance?
The value was 1.00 and 1.13.

And the Eotaxin-2 ([2]; Cell lysate)?
Its Eotaxin-2 is 262.00 and 336.77.

And the Eotaxin-3 ([2]; Cell lysate)?
Its Eotaxin-3 is 184.50 and 284.96.

And the FGF-6 ([2]; Cell lysate)?
The FGF-6 was 629.00 and 379.57.

What about the GM-CSF ([2]; Cell lysate) of the same substance?
Its GM-CSF is 433.00 and 636.37.

What about the I-309 ([2]; Cell lysate) of the same substance?
Its I-309 is 152.50 and 246.10.

What about the IFN-gamma ([2]; Cell lysate) of the same substance?
Its IFN-gamma is 349.00 and 441.52.

And the IGFBP-2 ([2]; Cell lysate)?
Its IGFBP-2 is 3,785.50 and 5,554.45.

What about the IGFBP-4 ([2]; Cell lysate) of the same substance?
Its IGFBP-4 is 5,553.00 and 6,043.27.

What about the IL-1alpha ([2]; Cell lysate) of the same substance?
Its IL-1alpha is 1,236.00 and 1,216.99.

And the IL-1beta ([2]; Cell lysate)?
The IL-1beta was 1.00 and 1.13.

And the IL-1ra ([2]; Cell lysate)?
The IL-1ra was 33.00 and 25.91.

What about the IL-5 ([2]; Cell lysate) of the same substance?
Its IL-5 is 400.50 and 555.84.

And the IL-6 ([2]; Cell lysate)?
The IL-6 was 828.50 and 516.98.

What about the IL-7 ([2]; Cell lysate) of the same substance?
Its IL-7 is 190.00 and 313.12.

What about the IL-13 ([2]; Cell lysate) of the same substance?
The IL-13 was 428.50 and 555.84.

And the IL-15 ([2]; Cell lysate)?
Its IL-15 is 599.50 and 808.13.

And the Leptin ([2]; Cell lysate)?
Its Leptin is 900.50 and 617.79.

What about the MCP-1 ([2]; Cell lysate) of the same substance?
The MCP-1 was 242.50 and 282.71.

And the MIG ([2]; Cell lysate)?
Its MIG is 291.00 and 226.39.

What about the MIP-1-delta ([2]; Cell lysate) of the same substance?
The MIP-1-delta was 1.50 and 1.13.

What about the NT-3 ([2]; Cell lysate) of the same substance?
The NT-3 was 1.00 and 1.13.

What about the SCF ([2]; Cell lysate) of the same substance?
The SCF was 74.50 and 148.67.

What about the “TGF-beta 1” value ([2]; Cell lysate) of the same substance?
The value was 362.00 and 230.33.

And the TNF-alpha ([2]; Cell lysate)?
Its TNF-alpha is 431.00 and 579.49.

What about the TNF-beta ([2]; Cell lysate) of the same substance?
Its TNF-beta is 241.00 and 342.40.

And the bFGF ([2]; Cell lysate)?
The bFGF was 59,820.50 and 54,057.29.

From patent US9096832B2, “Differentiation of human embryonic stem cells” (LifeScan, Inc., priority 2007, dated 2015)
